Our source for the viability values is paper PMC12040169 (PLOS Biology, 2025).

Each structure is given as a SMILES string.

This data set can be described thus: in vitro. The conditions noted are these: human, hela cells, % viability.
Usually viability stands for a read-out of living cells in per cent, often relative to untreated cells. For the compound `CCN(CC)C(=O)CN1CCCN(c2cc(OCc3cc(C)on3)ncn2)CC1` [CBK083337T], the viability at 28.5 h, 10 µM was 97%.
With `Clc1ccc(CN2CCCN(c3cc(OC4CCCCC4)ncn3)CC2)cc1Cl` [CBK083338T], the viability at 28.5 h, 10 µM was determined as 79.5%.
Then `CCN(CC)C(=O)CN1CCCN(c2cc(Oc3ccc(OC)c(OC)c3)ncn2)CC1` [CBK083359T], with 98.5%; and `N#CCCCN1CCCN(c2cc(OCC3COc4ccccc4O3)ncn2)CC1` (stereo not drawn) [CBK083391T], with 85.8%; and `c1ccc(OCCN2CCCN(c3cc(OCC4COc5ccccc5O4)ncn3)CC2)cc1` (stereo not drawn) [CBK083395T], with 87.7%.
As for `CCOC(=O)N1CCN(c2cccc3[nH]c(C(=O)O)cc23)CC1` [CBK083477], the figure is 93.9%; as for `c1cc(OCCN2CCCC2)c2cc[nH]c2c1` [CBK083478], 101%; as for `COc1ccc([C@@]23CC[C@@H](NC(=O)c4ccc(F)c(F)c4)C[C@@H]2CN(C)C3)cc1OC` [CBK083504T], 90.2%.
As for `COC(=O)N1CC2(CCCCC2NCc2c[nH]c(C)n2)c2ccccc21` (stereo not drawn) [CBK083547T], the figure is 108%; as for `CC1=NN(c2ccccc2)C(=O)C1C(=O)c1ccccc1` (stereo not drawn) [CBK083564], 99.3%; as for `COc1ccc(OC(=O)c2ccc3ncccc3c2)cc1` [CBK083572], 96.3%.
For the compound `COc1ccc(OC(=O)c2csc(Cc3c(Cl)cccc3Cl)n2)cc1` [CBK083573], the viability at 28.5 h, 10 µM was 95.7%.
As for `Brc1ccc2[nH]c3c(c2c1)CCNC31CCN(CCOc2ccccc2)C1` (stereo not drawn) [CBK083578], the figure is 75.5%.
Then `Cc1cc(OC(=O)C2CCC(CNC(=O)OC(C)(C)C)CC2)c2c3c(c(=O)oc2c1)CCC3` (stereo not drawn) [CBK083583], with 103%.
For `Cc1cc(OC(=O)C2CCC(CNC(=O)OC(C)(C)C)CC2)c2c3c(c(=O)oc2c1)CCCC3` (stereo not drawn) [CBK083590], the viability at 28.5 h, 10 µM stood at 102%.
Then `Clc1nccnc1N1CCCC1` [CBK083594], with 101%; and `Clc1cncc(N2CCCC2)n1` [CBK083595], with 118%.
As to `Clc1nc2ccccc2nc1N1CCCC1` [CBK083596], the viability at 28.5 h, 10 µM came to 101%.
As for `Clc1cc(N2CCCC2)ncn1` [CBK083597], the figure is 99.2%; as for `c1nc(OCCN2CCOCC2)cc(N2CCCN(CCN3CCOCC3)CC2)n1` [CBK083647], 103%; as for `COc1ccc(C(NC(=O)NNC(=O)CCC(=O)c2ccc(F)cc2)c2ccccc2C)cn1` (stereo not drawn) [CBK083659], 99%.
Then `Nc1c(-c2ccc3c(c2)CCO3)cnc2ncccc12` [CBK083678], with 96%; and `CCCCc1ccc(-c2cnc3ncccc3c2N)cc1` [CBK083683], with 96.2%; and `CC(C)(C)c1ccc(-c2cnc3ncccc3c2N)cc1` [CBK083684], with 99.9%.
Then `CS(=O)(=O)c1ccc(-c2cnc3ncccc3c2N)cc1` [CBK083687], with 97.5%; and `Nc1c(-c2ccsc2)cnc2ncccc12` [CBK083707], with 108%.
On to `CC(C)C(=O)Nc1c(-c2ccsc2)cnc2ncccc12` [CBK083714], for which the viability at 28.5 h, 10 µM came to 88.7%.
For `CCNC(=O)Nc1ccc(-c2ccncc2)c2ccccc12` [CBK083720], the viability at 28.5 h, 10 µM was 88.8%.
Then `CCNC(=O)Nc1ccc(-c2ccc(SC)cc2)c2ccccc12` [CBK083723], with 90.4%.
Consider `CCNC(=O)Nc1ccc(-c2ccc3c(c2)OCCCO3)c2ccccc12` [CBK083726], for which the viability at 28.5 h, 10 µM was 89.4%.
As for `CCNC(=O)Nc1ccc(-c2ccc(S(C)(=O)=O)cc2)c2ccccc12` [CBK083728], the viability at 28.5 h, 10 µM turned out to be 88.1%.
For the compound `CS(=O)(=O)Nc1ccc(-c2cccc(C(F)(F)F)c2)c2ccccc12` [CBK083746], the viability at 28.5 h, 10 µM was 95.4%.
Then `O=C1NC2(CCNCC2)Oc2ccc(-c3cccc4ncccc34)cc21` [CBK083775T], with 95.3%; and `Clc1ccc(COc2cc(N3CCCN(Cc4ccccc4-c4ccccc4)CC3)ncn2)cc1Cl` [CBK083781T], with 98.4%; and `CCN1CCCN(c2cc(OCc3ccc(Cl)c(Cl)c3)ncn2)CC1` [CBK083786], with 92.3%.
As for `NC(=O)CN1CCCN(c2ccnc(OCCN3CCOCC3)n2)CC1` [CBK083804], the figure is 89.9%.
Consider `c1ccc(CCN2CCCN(c3ccnc(OCCN4CCOCC4)n3)CC2)nc1` [CBK083813], for which the viability at 28.5 h, 10 µM was found to be 94.9%.
On to `COc1ccc(CN2CCCN(c3nccc(OCc4cc(C)on4)n3)CC2)cc1` [CBK083911], for which the viability at 28.5 h, 10 µM amounted to 100%.
With `Cc1cc(COc2ccnc(N3CCCN(CCCO)CC3)n2)no1` [CBK083917], the viability at 28.5 h, 10 µM is 98.4%.
Regarding `CSCCN1CCCN(c2nccc(OCc3ccc(Cl)c(Cl)c3)n2)CC1` [CBK083960], the viability at 28.5 h, 10 µM was 70.5%.
In the case of `Clc1ccc(COc2ccnc(N3CCCN(CC4CC4)CC3)n2)cc1Cl` [CBK083963], the viability at 28.5 h, 10 µM was determined as 81.3%.
Then `c1ccc2c(c1)OCC(COc1ccnc(N3CCCN(CCN4CCOCC4)CC3)n1)O2` (stereo not drawn) [CBK083976], with 116%; and `CSCCN1CCCN(c2nccc(OCC3COc4ccccc4O3)n2)CC1` (stereo not drawn) [CBK083978], with 91.1%; and `c1ccc(OCCN2CCCN(c3nccc(OCC4COc5ccccc5O4)n3)CC2)cc1` (stereo not drawn) [CBK083980], with 94%.
As to `c1ccc2c(c1)OCC(COc1ccnc(N3CCCN(CC4CCCCC4)CC3)n1)O2` (stereo not drawn) [CBK083982], the viability at 28.5 h, 10 µM was determined as 115%.
As for `COc1ccnc(N2CCCN(CCc3ccc(OC)c(OC)c3)CC2)n1` [CBK084002], the figure is 85%; as for `CS(=O)(=O)N1CC2(CCN(Cc3ccccc3)CC2)c2ccccc21` [CBK084003], 89.9%; as for `CS(=O)(=O)N1CC2(CCN(Cc3cccnc3)CC2)c2ccccc21` [CBK084006], 98.1%.
Turning to `CS(=O)(=O)N1CC2(CCN(CCCC#N)CC2)c2ccccc21` [CBK084014], the viability at 28.5 h, 10 µM was 97.9%.
Then `CS(=O)(=O)N1CC2(CCN(CCc3ccccc3)CC2)c2ccccc21` [CBK084015], with 88.3%.
As for `Cc1cc(COc2ccnc(N3CCCN(CC(N)=O)CC3)n2)no1` [CBK084036], the figure is 85.9%; as for `NC(=O)CN1CCCN(c2nccc(OCC3COc4ccccc4O3)n2)CC1` (stereo not drawn) [CBK084041], 115%; as for `CCN(CC)C(=O)CN1CCCN(c2nccc(OCCN3CCOCC3)n2)CC1` [CBK084094], 99.5%.
As for `CS(=O)(=O)N1CC2(CCN(CCc3ccc(F)cc3)CC2)c2ccccc21` [CBK084103], the figure is 93.3%; as for `COc1ccnc(N2CCCN(CCCC#N)CC2)n1` [CBK084124], 88.4%.
On to `COc1ccc(Oc2nccc(N3CCCN(Cc4ccc(C(F)(F)F)cc4)CC3)n2)cc1OC` [CBK084152], for which the viability at 28.5 h, 10 µM was 98.2%.
Then `COc1ccc(Oc2nccc(N3CCCN(CCCO)CC3)n2)cc1OC` [CBK084158], with 93.5%; and `Cc1cc(COc2nccnc2N2CCN(Cc3ccc(C(C)C)cc3)CC2)no1` [CBK084186], with 94.9%.
`Cc1cc(COc2nccnc2N2CCN(Cc3ccc([N+](=O)[O-])cc3)CC2)no1` [CBK084189]: the viability at 28.5 h, 10 µM stood at 92%.
As for `Cc1cc(COc2nccnc2N2CCN(CCCC#N)CC2)no1` [CBK084198], the figure is 93.5%.
Turning to `Cc1cc(COc2nccnc2N2CCN(CC3CCCCC3)CC2)no1` [CBK084205], the viability at 28.5 h, 10 µM amounted to 94.2%.
Then `COc1ccc(CN2CCN(c3nccnc3OC)CC2)cc1` [CBK084216], with 89.6%; and `COc1nccnc1N1CCN(CC(N)=O)CC1` [CBK084219], with 98.4%; and `CCN(CC)C(=O)CN1CCN(c2nccnc2OC)CC1` [CBK084221], with 83.9%.
Regarding `COc1nccnc1N1CCN(CCCn2c(=O)[nH]c3ccccc32)CC1` [CBK084226], the viability at 28.5 h, 10 µM was 95.8%.
With `COc1nccnc1OC1CCN(Cc2ccc(C(F)(F)F)cc2)CC1` [CBK084243], the viability at 28.5 h, 10 µM amounted to 79.3%.
Regarding `COc1nccnc1OC1CCN(CC(N)=O)CC1` [CBK084248], the viability at 28.5 h, 10 µM came to 86.7%.
With `COc1nccnc1OC1CCN(CCCO)CC1` [CBK084254], the viability at 28.5 h, 10 µM was determined as 97.6%.
Then `COc1nccnc1OC1CCN(CCc2ccccc2)CC1` [CBK084258], with 95%.
Then `COc1nccnc1OC1CCN(CCc2ccc(F)cc2)CC1` [CBK084259], with 102%.
Consider `COc1nccnc1OC1CCN(CCc2ccc3ccccc3c2)CC1` [CBK084264], for which the viability at 28.5 h, 10 µM worked out at 107%.
Then `CS(=O)(=O)Nc1nccnc1N1CCN(Cc2ccc(Cl)c(Cl)c2)CC1` [CBK084267], with 98.7%.
Then `CS(=O)(=O)Nc1nccnc1N1CCN(Cc2ccc([N+](=O)[O-])cc2)CC1` [CBK084274], with 103%; and `CS(=O)(=O)Nc1nccnc1OC1CCN(CCCO)CC1` [CBK084275], with 90.9%; and `CS(=O)(=O)Nc1nccnc1OC1CCN(CCCC#N)CC1` [CBK084276], with 99.4%.
Then `CS(=O)(=O)Nc1nccnc1OC1CCN(CCCn2c(=O)[nH]c3ccccc32)CC1` [CBK084277], with 91.8%; and `CS(=O)(=O)Nc1nccnc1OC1CCN(CCc2ccccc2)CC1` [CBK084279], with 98.3%.
Take `CS(=O)(=O)Nc1nccnc1OC1CCN(CCc2c[nH]c3ccccc23)CC1` [CBK084282]: the viability at 28.5 h, 10 µM came to 119%.
As for `O=C1CCC(=O)N1CCOc1nccnc1N1CCN(Cc2ccc(Cl)c(Cl)c2)CC1` [CBK084287], the figure is 92.9%; as for `O=C1CCC(=O)N1CCOc1nccnc1N1CCN(Cc2ccc([N+](=O)[O-])cc2)CC1` [CBK084294], 93%; as for `CCN(CC)C(=O)CN1CCN(c2nccnc2OCCN2C(=O)CCC2=O)CC1` [CBK084297], 102%.
